Results from ChEMBL document CHEMBL3044922, “N 1-{4-[(10S)-Dihydroartemisinin-10-oxyl]}phenylmethylene-N 2-(2-methylquinoline-4-yl)hydrazine derivatives as antiplasmodial falcipain-2 inhibitors” (Med Chem Res, 2012).

What was measured:
Falcipain 2 = biological target: T1, Falcipain 2 (Plasmodium falciparum, UniProt Q9N6S8); assay: Inhibition of Plasmodium falciparum recombinant falcipain 2 expressed in Escherichia coli using Z-Leu-Arg-AMC as substrate incubated for 30 min prior to substrate addition measured for 30 min by fluorometric analysis
T1 sequence (Q9N6S8 whole entry): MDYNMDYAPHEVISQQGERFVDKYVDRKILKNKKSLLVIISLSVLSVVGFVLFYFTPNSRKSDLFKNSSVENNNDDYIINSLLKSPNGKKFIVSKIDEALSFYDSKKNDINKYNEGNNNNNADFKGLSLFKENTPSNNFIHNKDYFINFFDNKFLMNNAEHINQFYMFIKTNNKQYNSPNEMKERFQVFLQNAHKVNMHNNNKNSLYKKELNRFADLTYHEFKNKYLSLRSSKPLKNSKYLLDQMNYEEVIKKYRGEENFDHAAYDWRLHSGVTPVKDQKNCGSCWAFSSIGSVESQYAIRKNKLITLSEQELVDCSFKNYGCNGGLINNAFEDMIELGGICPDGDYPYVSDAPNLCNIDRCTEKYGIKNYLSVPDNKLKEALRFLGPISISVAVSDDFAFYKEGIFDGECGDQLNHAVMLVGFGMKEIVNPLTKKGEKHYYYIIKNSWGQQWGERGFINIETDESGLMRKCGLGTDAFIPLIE

[1] = biological target: T2, Falcipain 2 (Plasmodium falciparum) (UniProt Q9N6S8); assay: Inhibition of Plasmodium falciparum recombinant falcipain 2 expressed in Escherichia coli using Z-Leu-Arg-AMC as substrate at 10 uM incubated for 30 min prior to substrate addition measured for 30 min by fluorometric analysis
T2 sequence (whole entry): T1 sequence (Q9N6S8 whole entry)

SMILES | IC50 (Falcipain 2) [nM] | inhibition [1] [%]
Cc1cc(N/N=C/c2ccc(O[C@H]3O[C@@H]4O[C@@]5(C)CC[C@H]6[C@H](C)CC[C@@H]([C@H]3C)[C@@]46OO5)cc2)c2ccc(Cl)c(C)c2n1 | 210 | 82.6
Cc1cc(N/N=C/c2ccc(O[C@H]3O[C@@H]4O[C@@]5(C)CC[C@H]6[C@H](C)CC[C@@H]([C@H]3C)[C@@]46OO5)cc2)c2cc(F)ccc2n1 | 670 | 88.6
Cc1cc(N/N=C/c2ccc(O[C@H]3O[C@@H]4O[C@@]5(C)CC[C@H]6[C@H](C)CC[C@@H]([C@H]3C)[C@@]46OO5)cc2)c2cccc(Br)c2n1 | 840 | 94.1
Cc1cc(N/N=C/c2ccc(O[C@H]3O[C@@H]4O[C@@]5(C)CC[C@H]6[C@H](C)CC[C@@H]([C@H]3C)[C@@]46OO5)cc2)c2c(Cl)ccc(C)c2n1 | 390 | 79.4
Cc1cc(N/N=C/c2ccc(O[C@H]3O[C@@H]4O[C@@]5(C)CC[C@H]6[C@H](C)CC[C@@H]([C@H]3C)[C@@]46OO5)cc2)c2ccc(Cl)cc2n1 | 170 | 88.4
Cc1cc(N/N=C/c2ccc(O[C@H]3O[C@@H]4O[C@@]5(C)CC[C@H]6[C@H](C)CC[C@@H]([C@H]3C)[C@@]46OO5)cc2)c2ccccc2n1 | 890 | 94.1
Cc1cc(N/N=C/c2ccc(O[C@H]3O[C@@H]4O[C@@]5(C)CC[C@H]6[C@H](C)CC[C@@H]([C@H]3C)[C@@]46OO5)cc2)c2cccc(C)c2n1 | 2280 | 84.3
COc1ccc2nc(C)cc(N/N=C/c3ccc(O[C@H]4O[C@@H]5O[C@@]6(C)CC[C@H]7[C@H](C)CC[C@@H]([C@H]4C)[C@@]57OO6)cc3)c2c1 | 290 | 93.7
Cc1cc(N/N=C/c2ccc(O[C@H]3O[C@@H]4O[C@@]5(C)CC[C@H]6[C@H](C)CC[C@@H]([C@H]3C)[C@@]46OO5)cc2)c2cccc(F)c2n1 | 280 | 84.7
Cc1cc(N/N=C/c2ccc(O[C@H]3O[C@@H]4O[C@@]5(C)CC[C@H]6[C@H](C)CC[C@@H]([C@H]3C)[C@@]46OO5)cc2)c2cc(Br)ccc2n1 | 260 | 89.8
CCc1cccc2c(N/N=C/c3ccc(O[C@H]4O[C@@H]5O[C@@]6(C)CC[C@H]7[C@H](C)CC[C@@H]([C@H]4C)[C@@]57OO6)cc3)cc(C)nc12 | 520 | 85.1
Cc1ccc2nc(C)cc(N/N=C/c3ccc(O[C@H]4O[C@@H]5O[C@@]6(C)CC[C@H]7[C@H](C)CC[C@@H]([C@H]4C)[C@@]57OO6)cc3)c2c1 | 780 | 87.2
Cc1cc(N/N=C/c2ccc(O[C@H]3O[C@@H]4O[C@@]5(C)CC[C@H]6[C@H](C)CC[C@@H]([C@H]3C)[C@@]46OO5)cc2)c2cc(Cl)ccc2n1 | 150 | 88.2
Cc1cc(N/N=C/c2ccc(O[C@H]3O[C@@H]4O[C@@]5(C)CC[C@H]6[C@H](C)CC[C@@H]([C@H]3C)[C@@]46OO5)cc2)c2ccc(C)c(C)c2n1 | 840 | 79.4
CC(C)C[C@H](NC(=O)[C@H]1O[C@@H]1C(=O)O)C(=O)NCCCCN=C(N)N [E-64] | 20 | 92
